4 compounds from PubChem BioAssay AID1259407 (Chemical Carcinogenesis Research Information System (CCRIS), 2018) can be followed below.

The data set has as its system CCRIS mutagenicity, Ames/micronucleus/aberration tests. Put plainly: CCRIS mutagenicity studies.
[1] abbreviates: Test System: AMES SALMONELLA TYPHIMURIUM, Strain/Indicator: TA98, Metabolic Activation: NONE, Method: STANDARD PLATE.
The mark [2] stands for this setting: Test System: AMES SALMONELLA TYPHIMURIUM, Strain/Indicator: TA98, Metabolic Activation: RAT, LIVER, S-9, AROCLOR 1254, Method: STANDARD PLATE.
The mark [3] stands for this setting: Test System: AMES SALMONELLA TYPHIMURIUM, Strain/Indicator: TA100, Metabolic Activation: NONE, Method: STANDARD PLATE.
Setting [4] is: Test System: AMES SALMONELLA TYPHIMURIUM, Strain/Indicator: TA100, Metabolic Activation: RAT, LIVER, S-9, AROCLOR 1254, Method: STANDARD PLATE.
Setting [5] is: Test System: AMES SALMONELLA TYPHIMURIUM, Strain/Indicator: TA1537, Metabolic Activation: NONE, Method: STANDARD PLATE.
Where [6] appears, read: Test System: AMES SALMONELLA TYPHIMURIUM, Strain/Indicator: TA1538, Metabolic Activation: NONE, Method: STANDARD PLATE.
Setting [7] is: Test System: MOUSE LYMPHOMA, Strain/Indicator: L5178Y (TK+/TK-), Metabolic Activation: NONE, Method: SUSPENSION/PLATE.

Active and inactive are the calls of the source. How the calls were made is not given here.

In the case of `Clc1nnc(Cl)c2ccccc12`, the mutagenic call was “inactive; negative” (Test System: AMES SALMONELLA TYPHIMURIUM, Strain/Indicator: TA98, Metabolic Activation: HAMSTER, LIVER, S-9, AROCLOR 1254, Method: STANDARD PLATE); “inactive; negative” under setting [1]; “inactive; negative” under setting [2]; “inactive; negative” (Test System: AMES SALMONELLA TYPHIMURIUM, Strain/Indicator: TA100, Metabolic Activation: HAMSTER, LIVER, S-9, AROCLOR 1254, Method: STANDARD PLATE); “inactive; negative” under setting [3]; “inactive; negative” under setting [4]. In addition, the mutagenic call was “inactive; negative” (Test System: AMES SALMONELLA TYPHIMURIUM, Strain/Indicator: TA1535, Metabolic Activation: HAMSTER, LIVER, S-9, AROCLOR 1254, Method: STANDARD PLATE); “inactive; negative” (Test System: AMES SALMONELLA TYPHIMURIUM, Strain/Indicator: TA1535, Metabolic Activation: NONE, Method: STANDARD PLATE); “inactive; negative” (Test System: AMES SALMONELLA TYPHIMURIUM, Strain/Indicator: TA1535, Metabolic Activation: RAT, LIVER, S-9, AROCLOR 1254, Method: STANDARD PLATE); “inactive; negative” (Test System: AMES SALMONELLA TYPHIMURIUM, Strain/Indicator: TA1537, Metabolic Activation: HAMSTER, LIVER, S-9, AROCLOR 1254, Method: STANDARD PLATE); “inactive; negative” under setting [5]; “inactive; negative” (Test System: AMES SALMONELLA TYPHIMURIUM, Strain/Indicator: TA1537, Metabolic Activation: RAT, LIVER, S-9, AROCLOR 1254, Method: STANDARD PLATE). Besides, the mutagenic call reads like this: (Test System: AMES SALMONELLA TYPHIMURIUM, Strain/Indicator: TA1538, Metabolic Activation: HAMSTER, LIVER, S-9, AROCLOR 1254, Method: STANDARD PLATE) “inactive; negative”; under setting [6], “inactive; negative”; (Test System: AMES SALMONELLA TYPHIMURIUM, Strain/Indicator: TA1538, Metabolic Activation: RAT, LIVER, S-9, AROCLOR 1254, Method: STANDARD PLATE) “inactive; negative”; under setting [7], “active; positive. reevaluation of results: inconclusive”; (Test System: MOUSE LYMPHOMA, Strain/Indicator: L5178Y (TK+/TK-), Metabolic Activation: RAT, LIVER, S-9, AROCLOR 1254, Method: SUSPENSION/PLATE) “active; positive. reevaluation of results: positive”.

Take `O=CN(O)c1ccc(Br)cc1`: the mutagenic call reads like this: under setting [1], “inactive; negative”; under setting [2], “active; positive”; under setting [3], “inactive; negative”; under setting [4], “active; positive”.

As for `Nc1cc([N+](=O)[O-])ccc1O`, the mutagenic call was “active; positive; precipitation occurred at all concentrations” (End Point: IN VITRO CHROMOSOMAL ABERRATIONS, Test System: CHO CELLS, Metabolic Activation: NONE); “active; positive; precipitation occurred at both concentrations” (End Point: IN VITRO CHROMOSOMAL ABERRATIONS, Test System: CHO CELLS, Metabolic Activation: RAT, LIVER, S-9, AROCLOR 1254); “active; positive” (Test System: AMES SALMONELLA TYPHIMURIUM, Strain/Indicator: TA98, Metabolic Activation: HAMSTER, LIVER, S-9, AROCLOR 1254 (10%), Method: PREINCUBATION); “active; positive” (Test System: AMES SALMONELLA TYPHIMURIUM, Strain/Indicator: TA98, Metabolic Activation: HAMSTER, LIVER, S-9, AROCLOR 1254, Method: PREINCUBATION); “inactive; negative” (Test System: AMES SALMONELLA TYPHIMURIUM, Strain/Indicator: TA98, Metabolic Activation: NONE, Method: PREINCUBATION); “inactive; negative” (Test System: AMES SALMONELLA TYPHIMURIUM, Strain/Indicator: TA98, Metabolic Activation: RAT, LIVER, S-9, AROCLOR 1254 (10%), Method: PREINCUBATION). Also, the mutagenic call is “inactive; negative” (Test System: AMES SALMONELLA TYPHIMURIUM, Strain/Indicator: TA98, Metabolic Activation: RAT, LIVER, S-9, AROCLOR 1254, Method: PREINCUBATION); “inactive; negative” (Test System: AMES SALMONELLA TYPHIMURIUM, Strain/Indicator: TA100, Metabolic Activation: RAT, LIVER, S-9, AROCLOR 1254 (10%), Method: PREINCUBATION); “inactive; negative” (Test System: AMES SALMONELLA TYPHIMURIUM, Strain/Indicator: TA100, Metabolic Activation: RAT, LIVER, S-9, AROCLOR 1254, Method: PREINCUBATION); “inactive; negative” (Test System: AMES SALMONELLA TYPHIMURIUM, Strain/Indicator: TA1535, Metabolic Activation: HAMSTER, LIVER, S-9, AROCLOR 1254 (10%), Method: PREINCUBATION); “inactive; negative” (Test System: AMES SALMONELLA TYPHIMURIUM, Strain/Indicator: TA1535, Metabolic Activation: HAMSTER, LIVER, S-9, AROCLOR 1254, Method: PREINCUBATION); “inactive; negative” (Test System: AMES SALMONELLA TYPHIMURIUM, Strain/Indicator: TA1535, Metabolic Activation: RAT, LIVER, S-9, AROCLOR 1254 (10%), Method: PREINCUBATION). The mutagenic call (Test System: AMES SALMONELLA TYPHIMURIUM, Strain/Indicator: TA1535, Metabolic Activation: RAT, LIVER, S-9, AROCLOR 1254, Method: PREINCUBATION) was “inactive; negative”; the mutagenic call (Test System: AMES SALMONELLA TYPHIMURIUM, Strain/Indicator: TA1537, Metabolic Activation: HAMSTER, LIVER, S-9, AROCLOR 1254 (10%), Method: PREINCUBATION) is “inactive; negative”; the mutagenic call (Test System: AMES SALMONELLA TYPHIMURIUM, Strain/Indicator: TA1537, Metabolic Activation: HAMSTER, LIVER, S-9, AROCLOR 1254, Method: PREINCUBATION) was “inactive; negative”; the mutagenic call (Test System: AMES SALMONELLA TYPHIMURIUM, Strain/Indicator: TA1537, Metabolic Activation: RAT, LIVER, S-9, AROCLOR 1254 (10%), Method: PREINCUBATION) was “inactive; negative”; the mutagenic call (Test System: AMES SALMONELLA TYPHIMURIUM, Strain/Indicator: TA1537, Metabolic Activation: RAT, LIVER, S-9, AROCLOR 1254, Method: PREINCUBATION) was “inactive; negative”; the mutagenic call under setting [7] was “active; positive”.

As to `C[n+]1ccn(CCC[n+]2ccc(C(N)=O)cc2)c1/C=N/O`, the mutagenic call is, setting by setting: (Test System: AMES SALMONELLA TYPHIMURIUM, Strain/Indicator: TA97, Metabolic Activation: NONE, Method: STANDARD PLATE) “inactive; negative”; (Test System: AMES SALMONELLA TYPHIMURIUM, Strain/Indicator: TA97, Metabolic Activation: S-9, Method: STANDARD PLATE) “inactive; negative”; under setting [3], “inactive; negative”; (Test System: AMES SALMONELLA TYPHIMURIUM, Strain/Indicator: TA100, Metabolic Activation: S-9, Method: STANDARD PLATE) “inactive; negative”; (Test System: AMES SALMONELLA TYPHIMURIUM, Strain/Indicator: TA104, Metabolic Activation: NONE, Method: STANDARD PLATE) “inactive; negative”; (Test System: AMES SALMONELLA TYPHIMURIUM, Strain/Indicator: TA104, Metabolic Activation: S-9, Method: STANDARD PLATE) “inactive; negative”. Moreover, the mutagenic call under setting [5] is “inactive; negative”; the mutagenic call (Test System: AMES SALMONELLA TYPHIMURIUM, Strain/Indicator: TA1537, Metabolic Activation: S-9, Method: STANDARD PLATE) was “inactive; negative”; the mutagenic call under setting [6] was “inactive; negative”; the mutagenic call (Test System: AMES SALMONELLA TYPHIMURIUM, Strain/Indicator: TA1538, Metabolic Activation: S-9, Method: STANDARD PLATE) is “inactive; negative”.
